Measured values reported in ChEMBL document CHEMBL4834411, “Hydroazulene Diterpenes from a Dictyota Brown Alga and Their Antioxidant and Neuroprotective Effects Against Cerebral Ischemia-Reperfusion Injury” (2021).
Activity calls are given as the source filed them. The calls are words filed in the database; no cut-off is given here.

Experiments:
PC-12 [1] = test: Cytoprotective activity against H2O2-induced oxidative damage in rat PC12 cells assessed as increase in cell viability pre-incubated for 24 hrs followed by H2O2 treatment for another 24 hrs by MTT assay; type: functional, cell-based; conditions: dose 0.25-2 µM, time 48.0 hrs
PC-12 [2] = test: Cytoprotective activity against H2O2-induced oxidative damage in rat PC12 cells assessed as increase in cell viability at 0.25 uM preincubated for 24 hrs followed by H2O2 treatment for another 24 hrs by MTT assay; type: functional, cell-based; conditions: time 48.0 hrs
PC-12 [3] = test: Cytoprotective activity against H2O2-induced oxidative damage in rat PC12 cells assessed as increase in colony formation at 0.5 to 1 uM preincubated for 24 hrs followed by H2O2 treatment by crystal violet staining based assay; type: functional, cell-based; conditions: dose 0.5-1 µM
PC-12 [4] = test: Antioxidant activity against H2O2-induced oxidative damage in rat PC12 cells assessed as inhibition of MDA production at 2 uM preincubated for 24 hrs followed by H2O2 stimulation for 6 hrs; type: functional, cell-based; conditions: time 30.0 hrs
PC-12 [5] = test: Antioxidant activity against H2O2-induced oxidative damage in rat PC12 cells assessed as inhibition of intracellular ROS production at 2 uM preincubated for 24 hrs followed by H2O2 stimulation for 2 hrs by DCFH-DA staining based fluorescence microscopy; type: functional, cell-based; conditions: time 26.0 hrs
[6] = biological target: T1, Nuclear factor erythroid 2-related factor 2 (Rattus norvegicus) (UniProt O54968); test: Activation of Nrf2 in rat PC12 cells assessed as nuclear translocation of Nrf2 at 2 uM after 6 hrs by DAPI staining based fluorescence microscopy analysis; type: cell-based; conditions: PC-12, filed as activator
T1 sequence (whole entry): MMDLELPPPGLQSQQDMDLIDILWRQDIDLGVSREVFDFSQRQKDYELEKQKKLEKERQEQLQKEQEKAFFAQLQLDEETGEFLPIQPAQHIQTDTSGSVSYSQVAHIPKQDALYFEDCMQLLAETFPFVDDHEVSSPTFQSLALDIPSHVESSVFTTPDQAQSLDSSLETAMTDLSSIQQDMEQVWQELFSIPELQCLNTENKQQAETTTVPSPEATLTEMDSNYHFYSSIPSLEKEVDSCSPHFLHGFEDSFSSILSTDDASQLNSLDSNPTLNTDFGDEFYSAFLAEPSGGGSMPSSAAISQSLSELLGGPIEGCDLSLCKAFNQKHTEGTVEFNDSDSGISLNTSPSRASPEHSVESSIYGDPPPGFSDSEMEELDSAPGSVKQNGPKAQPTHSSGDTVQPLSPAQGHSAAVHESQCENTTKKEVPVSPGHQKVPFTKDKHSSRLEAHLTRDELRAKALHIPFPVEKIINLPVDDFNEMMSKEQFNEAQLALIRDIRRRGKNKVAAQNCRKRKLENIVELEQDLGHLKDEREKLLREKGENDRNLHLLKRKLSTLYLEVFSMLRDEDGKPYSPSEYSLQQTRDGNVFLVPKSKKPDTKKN

[7] = biological target: T1, Nuclear factor erythroid 2-related factor 2 (Rattus norvegicus); test: Activation of Nrf2 in rat PC12 cells assessed as upregulation of HO-1 protein expression after 24 hrs by Western blotting analysis; type: cell-based; conditions: PC-12, filed as activator, dose 0.5-2 µM
[8] = biological target: T1, Nuclear factor erythroid 2-related factor 2 (Rattus norvegicus); test: Activation of Nrf2 in rat PC12 cells assessed as upregulation of HO-1 protein expression at 2 uM after 24 hrs by Western blotting analysis; type: cell-based; conditions: PC-12, filed as activator
PC-12 [9] = test: Cytoprotective activity against H2O2-induced oxidative damage in Nrf2 knockdown rat PC12 cells assessed as increase in cell viability at 2 uM preincubated for 24 hrs followed by H2O2 treatment for another 24 hrs by MTT assay; type: functional, cell-based; conditions: time 48.0 hrs
Rattus norvegicus [10] = test: Neuroprotective activity in Sprague-Dawley rat model of middle cerebral artery occlusion-induced cerebral ischemia-reperfusion injury assessed as decrease in brain infarction size at 80 ug/kg pretreated for 2 hrs followed by MCAO measured after 72 hrs by TTC staining based assay; type: functional, organism-based; conditions: dose 80.0 µg/kg
Rattus norvegicus [11] = test: Neuroprotective activity in Sprague-Dawley rat model of middle cerebral artery occlusion-induced cerebral ischemia-reperfusion injury assessed as reduction in neurological deficit score at 80 ug/kg pretreated for 2 hrs followed by MCAO measured after 72 hrs by TTC staining based assay; type: functional, organism-based; conditions: dose 80.0 µg/kg, time 74.0 hrs

`CC(C)=CCC[C@@H](C)[C@@H]1CC[C@](C)(O)[C@@H]2CC=C(C)[C@H]2[C@@H]1O` was tested, and the Activity (PC-12 [1]) was “Dose-Dependent Effect”, the Activity (PC-12 [2]) was “Active” and the Activity (PC-12 [3]) was “Active”. For the same compound, the Activity (PC-12 [4]) was “Active”, the Activity (PC-12 [5]) was “Active” and the Activity [6] was “Active”. The Activity [7] was “Dose-Dependent Effect”, the Activity [8] was “Active” and the Activity (PC-12 [9]) was “inactive”. The Activity (Rattus norvegicus [10]) was “Active” and the Activity (Rattus norvegicus [11]) was “Active”.
